Key:
[1] = tested on: Ocular Hypertensive Rabbit; experiment: Ocular blood flow in ocular hypertensive rabbit (colored microspheres); type: in vivo; conditions: 1% topical instillation, 30 minutes after drug instillation
Method: 0.5% alcaine was purchased commercially. A 20% sterilized hypertonic saline solution was prepared in the laboratory. Colored microspheres were purchased from E-Z Trac (Los Angeles, Calif.). The colored microspheres were diluted with saline containing 0.01% (v/v) of Tween 80 to prevent the microspheres from sticking together. Two million microspheres in 0.4 ml were injected at each time point.
Female New Zealand white rabbits weighing 2.-3.0 kg, were purchased commercially. Animal care and treatment were followed by the institutional guidelines.
Rabbits were anesthetized with 35 mg/kg ketamine and 5 mg/kg xylazine by intramuscular injection. Half of the initial dose was given every one hour thereafter. The left ventricle was cannulated through the right carotid artery for injection of colored microspheres and the femoral artery was cannulated for collection of blood samples. The left eye was treated with one drop of proparacaine hydrochloride ophthalmic solution (Bausch & Lomb, Inc., Tampa, Fla., USA). The needle was inserted directly into the anterior chamber of the left eye, which was connected to the 40 mmHg saline manometer. The ocular hypertensive model reduced the ocular blood flow to approximately one third of the normal valued. 50 μl of 10 g/l flavone or vehicle (30% HP-β-CD solution) was instilled topically to the left eye 30 minutes after the ocular hypertensive model was built. The ocular blood flow was measured by colored microspheres at 0, 30, 60 and 120 minutes after treatment with the compounds or vehicle. At each time point, 2 million microspheres were injected as a reference, and blood samples were taken from the femoral artery for exactly one minute following injection of the microspheres. The blood sample was collected in a heparinized tube and the volume was recorded. The rabbits were euthanized with an injection of 100 mg/kg pentobarbital sodium after the last blood sampling. The left eyes were enucleated and dissected into the iris, ciliary body, retina and choroid. All the tissues were weighed.
The details of sample processing and microsphere counting were provided by E-Z Trac (Los Angeles, Calif., USA). In brief, the blood hemolysis reagent was added to the microfuge tubes with the blood sample, then vortexed and centrifuged for 30 minutes at 6000 rpm. The supernatant was removed, and then tissue/blood digest reagents I and II were added. The tubes were capped, vortexed, and centrifuged for 30 minutes. […] The number of microspheres was counted by the hemocytometer under the microscope. […] The protocol thereafter was the same as that used to process the blood samples, and the microspheres were counted.
The blood flow of each tissue at a certain time point was calculated according to the following formula: Qm=(Cm×Qr)/Cr. […]

[2] = tested on: rat's retinal function after ischemic insult; experiment: b-wave recovery of retinal function after ischemic insult (ERG); type: in vivo; conditions: 1% instilled topically
Method: The retinal ischemia experiment has been described previously (Chiou et al., J. Ocular Pharmacol. 9:179-185, 1993, and Chiou et al., J. Ocular Pharmacol. 10:493-498, 1994). Electroretinograms (ERG) were carried out to assess the retinal function prior to and after the ischemic insult. ERGs were recorded using Ag/AgCl electrodes placed in contact with the cornea. One stainless steel needle was inserted subcutaneously between the two eyes as a reference electrode, and another needle was inserted subcutaneously into the neck as a ground electrode. A photostimulator (Grass PS22 Flash) was used to produce flashes of light 5 inches from the eye, and the ERG potentials were recorded on a polygraph. The ERG system was purchased from LKC Technologies, Inc. (Gaithersburg, Md.). A single flash (10 msec) of white light stimuli was used to evoke ERG a- and b-waves. Peak b-wave amplitudes were measured from the trough of the a-wave to the peak of the b-wave.
Long-Evans rats (200-250 g), dark-adapted at least 2 hours, were anaesthetized intramuscularly with ketamine (35 mg/kg) plus xylazine (5 mg/kg). Half of the initial dose was administrated at one hour intervals to maintain adequate anesthesia. The pupils were dilated with 1% tropicamide (50 μl) for ERG experiments. Retinal ischemia was produced by occlusion of the central retina and posterior ciliary arteries using a ligature placed around the optic nerve and posterior ciliary artery. The ligature was drawn tightly through a micropipette tip placed at the base of the eyeball socket to occlude the retinal vessels for 30 min. After 30 min of retinal ischemia, the ligature was liberated and the retinal arteries allowed to reperfuse. ERGs were measured at 30, 60, 90, 120, 180 and 240 min thereafter. The compounds and vehicle were administered topically before occlusion of the central retinal arteries.

CC(C)=CCC/C(C)=C/Cc1c(O)cc2c(c1O)C(=O)C[C@@H](c1ccc(O)c(O)c1)O2 [Formula (I)]
blood flow in choroid [1]: significantly increased | blood flow in iris [1]: significantly increased | b-wave amplitude recovery, of the original level ([2]; after 30 min retinal ischemia and reperfusion): approximately 50% | duration of drug action on b-wave recovery ([2]; after drug application): at least 240 min
